# Measured values as given in patent US7183320B2, “Benzoylsulfonamides and sulfonylbenzamidines for use as antitumour agents” (Eli Lilly and Company, priority 2002, dated 2007).
# What was measured:
# [1] = test system: HCT116 colon carcinoma cells; experiment: HCT116 colon carcinoma cell growth inhibition (WST-1, 72 hr); type: cell-based, human; details: Homo sapiens, HCT-116, 72 hr exposure
# [2] = test system: MURINE MAMMARY ADENOCARCINOMA-16/C; experiment: Early stage murine mammary adenocarcinoma-16/C (Table III); type: in vivo; details: C3H female mice
# From the text: (§1) Conventional Murine Tumor and Human Tumor Xenouraft Assays
# Briefly, the murine tumor or human xenograph was implanted subcutaneously using either 12-gauge trocar implants or counted number of cells. The location for the trocar insertion is midway between the axillary and inguinal region along the side of the mouse. The trocar is slipped approximately ¾ of an inch subcutaneously up toward the axilla before discharging the tumor fragment, and pinching the skin as the trocar is removed., Alternatively, human tumor cells prepared from a […] of donor tumors (5×10^6 cells) were implanted subcutaneously in a hind-leg of a male or female nude mouse (Charles River). Either a test compound in vehicle or vehicle alone was administered by intravenous bolus injection (iv), intraperitoneal injection (ip), or oral gavage (po). Each treatment group, as well as a group of untreated control animals, consisted of five animals per group in each experiment. […] Body weights were taken as a general measure of toxicity. The subcutaneous tumor data were analyzed by determining the median tumor weight for each treatment group over the course of the experiment and calculating the tumor growth delay as the difference in days for the treatment versus the control tumors to reach a volume of either 500 or 1000 mm^3.
# The parameters measured in each experiment are summarized in the following paragraphs. • Tumor Weight(mg)=(a×b^2)/2 where a=tumor length (mm) and b=tumor width (mm). • Tumor Growth Delay=T−C where T is the median time (days) required for the treatment group tumors to reach a predetermined size, and C is the median time (days) for the control group tumors to reach the same size. Tumor-free survivors are excluded from this calculation, and are tabulated separately (Tumor Free).
# The median tumor weight of each group is determined (including zeros). The T/C value in percent is an indication of antitumor effectiveness.
# [3] = test system: TAXOL SENSITIVE HUMAN COLON ADENOCARCINOMA #15/0; experiment: Early stage taxol sensitive human colon adenocarcinoma #15/0 xenograft (Table V); type: in vivo; details: total dose 420 mg/kg: 140 mg/kg/injection IV on days 3, 5, and 7; Balb/C SCID female mice
# From the text: as §1
# Inhibition of tumors transplanted into mice is an accepted procedure for studying the efficacy of antitumor agents (Corbett, et al., In vivo Methods for Screening and Preclinical Testing; Use of rodent solid tumors for drug discovery., In: Anticancer Drug Development Guide: Preclinical Screening, Clinical Trials, and Approval, B. Teicher (ed), Humana Press Inc., Totowa, N.J., Chapter 5, pages 75–99 (1997); (Corbett, et al., Int., J. Parmacog., 33, Supplement, 102–122 (1995)). Murine tumors or human xenographs were implanted essentially as described by Corbett in In vivo Methods for Screening and Preclimical Testing; Use of rodent solid tumors for drug discovery. Briefly, the murine tumor or human xenograph was implanted subcutaneously using either 12-gauge trocar implants or counted number of cells. The location for the trocar insertion is midway between the axillary and inguinal region along the side of the mouse. The trocar is slipped approximately ¾ of an inch subcutaneously up toward the axilla before discharging the tumor fragment, and pinching the skin as the trocar is removed., Alternatively, human tumor cells prepared from a […] of donor tumors (5×10^6 cells) were implanted subcutaneously in a hind-leg of a male or female nude mouse (Charles River). Either a test compound in vehicle or vehicle alone was administered by intravenous bolus injection (iv), intraperitoneal injection (ip), or oral gavage (po). Each treatment group, as well as a group of untreated control animals, consisted of five animals per group in each experiment. Subcutaneous tumor response was monitored by tumor volume measurement performed twice each week over the course of the experiment (60–120 days). Body weights were taken as a general measure of toxicity. The subcutaneous tumor data were analyzed by determining the median tumor weight for each treatment group over the course of the experiment and calculating the tumor growth delay as the difference in days for the treatment versus the control tumors to reach a volume of either 500 or 1000 mm^3.
# The compound of Example 110 was tested against a variety of murine and human tumors substantially as described supra. The parameters measured in each experiment are summarized in the following paragraphs. • Tumor Weight(mg)=(a×b^2)/2 where a=tumor length (mm) and b=tumor width (mm). • Tumor Growth Delay=T−C where T is the median time (days) required for the treatment group tumors to reach a predetermined size, and C is the median time (days) for the control group tumors to reach the same size. Tumor-free survivors are excluded from this calculation, and are tabulated separately (Tumor Free).
# [formula] • where Tumor Growth Delay is as previously defined and Td is tumor volume doubling time (days), estimated from the best fit straight line from a log-linear growth plot of the control group of tumors in exponential growth (100–800 mg range) • % T/C mass—The treatment and control groups are measured when the control group tumors reach approximately 700 to 1200 mg in size (median group). The median tumor weight of each group is determined (including zeros). The T/C value in percent is an indication of antitumor effectiveness. A T/C≦42% is considered significant antitumor activity. A T/C<10% is considered to indicate highly significant antitumor activity. • Body Weight Loss Nadir—A body weight loss nadir (mean of group) of greater than 20% or drug deaths greater than 20% are considered to indicate an excessively toxic dosage in single course trials. • Activity Rating—the Activity Rating is derived from the Log Kill according to the following table: […]
# [4] = total dose 560 mg/kg by IV infusion over 3 hours on day 3
# [5] = total dose 560 mg/kg: 280 mg/kg by IV infusion on days 3 and 7
# [6] = total dose 680 mg/kg IV: 80 mg/kg/injection days 3–6, 120 mg/kg/injection days 7–9
structure (smiles),measurement,setting,value
"O=C(NS(=O)(=O)c1ccccc1)c1ccc(Cl)cc1Cl [Example 110, N-[2,4-dichlorobenzoyl]phenylsulfonamide]",IC50,[1],3.5 µM
same,% BODY WT LOSS AT NADIR,[2]; [4],DEATH
same,ACTIVITY RATING,[2]; [4],DEATH
same,DRUG DEATHS,[2]; [4],5/5
same,GROWTH DELAY (DAYS),[2]; [4],DEATH
same,TUMOR FREE AT DAY 14,[2]; [4],0/5
same,% BODY WT LOSS AT NADIR,[2]; [5],+10.9%
same,% T/C MASS,[2]; [5],37%
same,ACTIVITY RATING,[2]; [5],+ (0.7–1.2)
same,DRUG DEATHS,[2]; [5],0/4
same,GROWTH DELAY,[2]; [5],2.0 days
same,LOG KILL,[2]; [5],0.6
same,TUMOR FREE AT DAY 14,[2]; [5],0/4
same,% BODY WT LOSS AT NADIR,[2]; [6],+7.6%
same,% T/C MASS,[2]; [6],39%
same,ACTIVITY RATING,[2]; [6],+ (0.7–1.2)
same,DRUG DEATHS,[2]; [6],0/5
same,GROWTH DELAY,[2]; [6],2.5 days
same,LOG KILL,[2]; [6],0.75
same,TUMOR FREE AT DAY 14,[2]; [6],0/5
same,% BODY WT LOSS AT NADIR,[3],0%
same,% T/C MASS,[3],0%
same,ACTIVITY RATING,[3],++++ (HIGHLY ACTIVE >2.8)
same,DRUG DEATHS,[3],0/5
same,GROWTH DELAY,[3],33.5 days
same,LOG KILL,[3],5.0
same,TUMOR FREE AT DAY 151,[3],1/5
